From patent US20230398130A1, “METHODS AND COMPOSITIONS FOR DIFFERENTIATING STEM CELLS” (Massachusetts Institute of Technology, priority 2020, published 2023)

Key:
ISC-enriched organoids [1] = assay: Primary screen, 384-well 2.5-D organoid differentiation (ENR+CD, 6 days): basal lysozyme secretion (LYZ.NS); assay type: cell-based, murine; conditions: for Dose.FC.LYZ.NS: FC vs plate median; for SSMD.LYZ.NS: strictly standardized mean difference
Description: (§1) High-throughput screening.

ISC-enriched organoids [2] = assay: Primary screen, 384-well 2.5-D organoid differentiation (ENR+CD, 6 days): carbachol-induced lysozyme secretion (LYZ.S); assay type: cell-based, murine; conditions: for Dose.FC.LYZ.S: FC vs plate median; for Z.LYZ.S: standard z score; for SSMD.LYZ.S: strictly standardized mean difference
Description: as §1

ISC-enriched organoids [3] = assay: Primary screen, 384-well 2.5-D organoid differentiation (ENR+CD, 6 days, Target Selective Inhibitor Library, vs whole-plate median): ATP (CellTiter-Glo 3D, CTG); conditions: for Dose.FC.CTG: FC vs plate median; for SSMD.CTG: strictly standardized mean difference
[4] = Dose 0.08 uM, primary screen, standard z score
[5] = Dose 0.40 uM, primary screen, standard z score
[6] = Dose 2.00 uM, primary screen, standard z score
[7] = Dose 10.00 uM, primary screen, standard z score
[8] = primary screen, 1st of the 4 dose lines of the treatment (dose not given)
[9] = primary screen, 2nd of the 4 dose lines of the treatment (dose not given)
[10] = primary screen, 3rd of the 4 dose lines of the treatment (dose not given)
[11] = primary screen, 4th of the 4 dose lines of the treatment (dose not given)
[12] = dose 0.08 uM (1st of 4 lines per treatment; dose not printed in this part)
[13] = dose 0.40 uM (2nd of 4 lines per treatment; dose not printed in this part)
[14] = dose 2.00 uM (3rd of 4 lines per treatment; dose not printed in this part)
[15] = dose 10.00 uM (4th of 4 lines per treatment; dose not printed in this part)
[16] = primary screen, dose 0.08 uM, ENR+CD 6 days
[17] = primary screen, dose 0.08 uM, standard z score of FC
[18] = primary screen, dose 0.40 uM, ENR+CD 6 days
[19] = primary screen, dose 0.40 uM, standard z score of FC
[20] = primary screen, dose 2.00 uM, ENR+CD 6 days
[21] = primary screen, dose 2.00 uM, standard z score of FC
[22] = primary screen, dose 10.00 uM, ENR+CD 6 days
[23] = primary screen, dose 10.00 uM, standard z score of FC
[24] = Dose 0.08 uM, standard z score of FC
[25] = Dose 0.40 uM, standard z score of FC
[26] = Dose 2.00 uM, standard z score of FC
[27] = Dose 10.00 uM, standard z score of FC

**Q.** Which Dose.FC.LYZ.NS (ISC-enriched organoids [1]; Dose 0.08 uM, primary screen) does the source give for CCCCc1nc(Cl)c(CO)n1Cc1ccc(-c2ccccc2-c2nnn[n-]2)cc1.[K+] [Losartan Potassium (DuP 753)] here?
**A.** 0.052 log 2 fold change

**Q.** And the Z.LYZ.NS (ISC-enriched organoids [1]; [4])?
**A.** 0.449

**Q.** What about the Dose.FC.LYZ.NS (ISC-enriched organoids [1]; Dose 0.40 uM, primary screen) of the same molecule?
**A.** 0.038 log 2 fold change

**Q.** And the Z.LYZ.NS (ISC-enriched organoids [1]; [5])?
**A.** 0.329

**Q.** What about the Dose.FC.LYZ.NS (ISC-enriched organoids [1]; Dose 2.00 uM, primary screen) of the same molecule?
**A.** −0.042 log 2 fold change

**Q.** And the Z.LYZ.NS (ISC-enriched organoids [1]; [6])?
**A.** −0.362

**Q.** And the Dose.FC.LYZ.NS (ISC-enriched organoids [1]; Dose 10.00 uM, primary screen)?
**A.** 0.062 log 2 fold change

**Q.** And the Z.LYZ.NS (ISC-enriched organoids [1]; [7])?
**A.** 0.540

**Q.** And the SSMD.LYZ.NS (ISC-enriched organoids [1]; [8])?
**A.** 0.273

**Q.** What about the SSMD.LYZ.NS (ISC-enriched organoids [1]; [9]) of the same molecule?
**A.** 0.263

**Q.** What about the SSMD.LYZ.NS (ISC-enriched organoids [1]; [10]) of the same molecule?
**A.** −0.341

**Q.** What about the SSMD.LYZ.NS (ISC-enriched organoids [1]; [11]) of the same molecule?
**A.** 0.423

**Q.** What about the Dose.FC.LYZ.S (ISC-enriched organoids [2]; Dose 0.08 uM, primary screen) of the same molecule?
**A.** −0.017 log 2 fold change

**Q.** What about the Dose.FC.LYZ.S (ISC-enriched organoids [2]; Dose 0.40 uM, primary screen) of the same molecule?
**A.** 0.027 log 2 fold change

**Q.** What about the Dose.FC.LYZ.S (ISC-enriched organoids [2]; Dose 2.00 uM, primary screen) of the same molecule?
**A.** −0.080 log 2 fold change

**Q.** And the Dose.FC.LYZ.S (ISC-enriched organoids [2]; Dose 10.00 uM, primary screen)?
**A.** −0.025 log 2 fold change

**Q.** And the Z.LYZ.S (ISC-enriched organoids [2]; [8])?
**A.** −0.112

**Q.** What about the Z.LYZ.S (ISC-enriched organoids [2]; [9]) of the same molecule?
**A.** 0.173

**Q.** And the Z.LYZ.S (ISC-enriched organoids [2]; [10])?
**A.** −0.519

**Q.** And the Z.LYZ.S (ISC-enriched organoids [2]; [11])?
**A.** −0.164

**Q.** What about the SSMD.LYZ.S (ISC-enriched organoids [2]; [8]) of the same molecule?
**A.** −0.104

**Q.** What about the SSMD.LYZ.S (ISC-enriched organoids [2]; [9]) of the same molecule?
**A.** 0.194

**Q.** What about the SSMD.LYZ.S (ISC-enriched organoids [2]; [10]) of the same molecule?
**A.** −0.616

**Q.** What about the SSMD.LYZ.S (ISC-enriched organoids [2]; [11]) of the same molecule?
**A.** −0.185

**Q.** And the Dose.FC.CTG (ISC-enriched organoids [3]; Dose 0.08 uM, primary screen)?
**A.** −0.152 log 2 fold change

**Q.** And the Z.CTG (ISC-enriched organoids [3]; [4])?
**A.** −0.362

**Q.** What about the Dose.FC.CTG (ISC-enriched organoids [3]; Dose 0.40 uM, primary screen) of the same molecule?
**A.** −0.175 log 2 fold change

**Q.** What about the Z.CTG (ISC-enriched organoids [3]; [5]) of the same molecule?
**A.** −0.418

**Q.** What about the Dose.FC.CTG (ISC-enriched organoids [3]; Dose 2.00 uM, primary screen) of the same molecule?
**A.** −0.081 log 2 fold change

**Q.** What about the Z.CTG (ISC-enriched organoids [3]; [6]) of the same molecule?
**A.** −0.193

**Q.** And the Dose.FC.CTG (ISC-enriched organoids [3]; Dose 10.00 uM, primary screen)?
**A.** −0.137 log 2 fold change

**Q.** What about the Z.CTG (ISC-enriched organoids [3]; [7]) of the same molecule?
**A.** −0.328

**Q.** And the SSMD.CTG (ISC-enriched organoids [3]; [8])?
**A.** −0.338

**Q.** And the SSMD.CTG (ISC-enriched organoids [3]; [9])?
**A.** −0.304

**Q.** What about the SSMD.CTG (ISC-enriched organoids [3]; [10]) of the same molecule?
**A.** −0.274

**Q.** What about the SSMD.CTG (ISC-enriched organoids [3]; [11]) of the same molecule?
**A.** −0.390

**Q.** Which results are given for CC(C)N(CC[C@H](c1ccccc1)c1cc(CO)ccc1O)C(C)C [5-hydroxymethyl Tolterodine (PNU 200577, 5-HMT, 5-HM)]?
**A.** SSMD.LYZ.NS_Rep (strictly standardized mean difference) (ISC-enriched organoids [1]; [12]): 0.915; SSMD.LYZ.NS_Rep (strictly standardized mean difference) (ISC-enriched organoids [1]; [13]): 0.760; SSMD.LYZ.NS_Rep (strictly standardized mean difference) (ISC-enriched organoids [1]; [14]): 0.947; SSMD.LYZ.NS_Rep (strictly standardized mean difference) (ISC-enriched organoids [1]; [15]): 0.223; Dose.FC.LYZ.NS (ISC-enriched organoids [1]; [16]): 0.184 log 2 fold change; Z.LYZ.NS (ISC-enriched organoids [1]; [17]): 1.599; Dose.FC.LYZ.NS (ISC-enriched organoids [1]; [18]): 0.076 log 2 fold change; Z.LYZ.NS (ISC-enriched organoids [1]; [19]): 0.665; Dose.FC.LYZ.NS (ISC-enriched organoids [1]; [20]): 0.154 log 2 fold change; Z.LYZ.NS (ISC-enriched organoids [1]; [21]): 1.344; Dose.FC.LYZ.NS (ISC-enriched organoids [1]; [22]): 0.034 log 2 fold change; Z.LYZ.NS (ISC-enriched organoids [1]; [23]): 0.293; SSMD.LYZ.S_Rep (strictly standardized mean difference) (ISC-enriched organoids [2]; [12]): 0.460; Z.LYZ.S (standard z score) (ISC-enriched organoids [2]; [12]): 0.417; SSMD.LYZ.S_Rep (strictly standardized mean difference) (ISC-enriched organoids [2]; [13]): 0.266; Z.LYZ.S (standard z score) (ISC-enriched organoids [2]; [13]): 0.231; SSMD.LYZ.S_Rep (strictly standardized mean difference) (ISC-enriched organoids [2]; [14]): 0.174; Z.LYZ.S (standard z score) (ISC-enriched organoids [2]; [14]): 0.152; SSMD.LYZ.S_Rep (strictly standardized mean difference) (ISC-enriched organoids [2]; [15]): −0.042; Z.LYZ.S (standard z score) (ISC-enriched organoids [2]; [15]): −0.044; Dose.FC.LYZ.S (ISC-enriched organoids [2]; [16]): 0.065 log 2 fold change; Dose.FC.LYZ.S (ISC-enriched organoids [2]; [18]): 0.036 log 2 fold change; Dose.FC.LYZ.S (ISC-enriched organoids [2]; [20]): 0.023 log 2 fold change; Dose.FC.LYZ.S (ISC-enriched organoids [2]; [22]): −0.007 log 2 fold change; SSMD.CTG_Rep (strictly standardized mean difference) (ISC-enriched organoids [3]; [12]): −0.118; SSMD.CTG_Rep (strictly standardized mean difference) (ISC-enriched organoids [3]; [13]): 0.291; SSMD.CTG_Rep (strictly standardized mean difference) (ISC-enriched organoids [3]; [14]): 0.114; SSMD.CTG_Rep (strictly standardized mean difference) (ISC-enriched organoids [3]; [15]): 0.061; Dose.FC.CTG (ISC-enriched organoids [3]; [16]): −0.062 log 2 fold change; Z.CTG (ISC-enriched organoids [3]; [17]): −0.149; Dose.FC.CTG (ISC-enriched organoids [3]; [18]): 0.087 log 2 fold change; Z.CTG (ISC-enriched organoids [3]; [19]): 0.207; Dose.FC.CTG (ISC-enriched organoids [3]; [20]): 0.034 log 2 fold change; Z.CTG (ISC-enriched organoids [3]; [21]): 0.082; Dose.FC.CTG (ISC-enriched organoids [3]; [22]): 0.017 log 2 fold change; Z.CTG (ISC-enriched organoids [3]; [23]): 0.040

**Q.** For CCCCCCCCc1ccc(CCC(N)(CO)CO)cc1.Cl [Fingolimod (FTY720) HCl], which Dose.FC.LYZ.NS (ISC-enriched organoids [1]; Dose 0.08 uM, ENR+CD, 6 days) is on record?
**A.** −0.054 log 2 fold change

**Q.** And the Z.LYZ.NS (ISC-enriched organoids [1]; [24])?
**A.** −0.471

**Q.** And the Dose.FC.LYZ.NS (ISC-enriched organoids [1]; Dose 0.40 uM, ENR+CD, 6 days)?
**A.** 0.071 log 2 fold change

**Q.** And the Z.LYZ.NS (ISC-enriched organoids [1]; [25])?
**A.** 0.616

**Q.** What about the Dose.FC.LYZ.NS (ISC-enriched organoids [1]; Dose 2.00 uM, ENR+CD, 6 days) of the same molecule?
**A.** 0.021 log 2 fold change

**Q.** And the Z.LYZ.NS (ISC-enriched organoids [1]; [26])?
**A.** 0.186

**Q.** And the Dose.FC.LYZ.NS (ISC-enriched organoids [1]; Dose 10.00 uM, ENR+CD, 6 days)?
**A.** −0.225 log 2 fold change

**Q.** What about the Z.LYZ.NS (ISC-enriched organoids [1]; [27]) of the same molecule?
**A.** −1.961

**Q.** What about the Dose.FC.LYZ.S (ISC-enriched organoids [2]; Dose 0.08 uM, ENR+CD, 6 days) of the same molecule?
**A.** −0.046 log 2 fold change

**Q.** And the Dose.FC.LYZ.S (ISC-enriched organoids [2]; Dose 0.40 uM, ENR+CD, 6 days)?
**A.** 0.077 log 2 fold change

**Q.** What about the Dose.FC.LYZ.S (ISC-enriched organoids [2]; Dose 2.00 uM, ENR+CD, 6 days) of the same molecule?
**A.** −0.060 log 2 fold change

**Q.** What about the Dose.FC.LYZ.S (ISC-enriched organoids [2]; Dose 10.00 uM, ENR+CD, 6 days) of the same molecule?
**A.** −0.362 log 2 fold change

**Q.** What about the Dose.FC.CTG (ISC-enriched organoids [3]; Dose 0.08 uM, ENR+CD, 6 days) of the same molecule?
**A.** −0.080 log 2 fold change

**Q.** What about the Z.CTG (ISC-enriched organoids [3]; [24]) of the same molecule?
**A.** −0.191

**Q.** And the Dose.FC.CTG (ISC-enriched organoids [3]; Dose 0.40 uM, ENR+CD, 6 days)?
**A.** 0.103 log 2 fold change

**Q.** And the Z.CTG (ISC-enriched organoids [3]; [25])?
**A.** 0.245

**Q.** What about the Dose.FC.CTG (ISC-enriched organoids [3]; Dose 2.00 uM, ENR+CD, 6 days) of the same molecule?
**A.** −0.468 log 2 fold change

**Q.** What about the Z.CTG (ISC-enriched organoids [3]; [26]) of the same molecule?
**A.** −1.119

**Q.** What about the Dose.FC.CTG (ISC-enriched organoids [3]; Dose 10.00 uM, ENR+CD, 6 days) of the same molecule?
**A.** −1.304 log 2 fold change

**Q.** What about the Z.CTG (ISC-enriched organoids [3]; [27]) of the same molecule?
**A.** −3.116
